# Experimental data: US7732457B2, “Amino-pyridines as inhibitors of β-secretase” (Wyeth LLC, priority 2005, dated 2010)
# pIC50: −log10 of the molar value.
# Columns and labels:
# human BACE1 = human BACE1 (Homo sapiens, UniProt P56817); assay: BACE-1 fluorescent kinetic assay (cleavage of peptide substrate WABC-6); format: biochemical; settings: 10 nM enzyme, 25 μM substrate WABC-6, Na-Acetate pH 4.5, room temperature
# Protocol: Evaluation of BACE-1 Binding Affinity of Test Compounds
# Fluorescent Kinetic Assay
# Dilution and mixing steps: total reaction volume: 100 μL
# 100 μM substrate dilution in 1×PBS was prepared, and
# Fluorescence Readings: Readings at λex 320 nm and λem 420 nm are taken every 40 sec for 30 min at room temperature and the linear slope for substrate cleavage rate (vi) determined.
# human BACE1, sequence (P56817 46-501): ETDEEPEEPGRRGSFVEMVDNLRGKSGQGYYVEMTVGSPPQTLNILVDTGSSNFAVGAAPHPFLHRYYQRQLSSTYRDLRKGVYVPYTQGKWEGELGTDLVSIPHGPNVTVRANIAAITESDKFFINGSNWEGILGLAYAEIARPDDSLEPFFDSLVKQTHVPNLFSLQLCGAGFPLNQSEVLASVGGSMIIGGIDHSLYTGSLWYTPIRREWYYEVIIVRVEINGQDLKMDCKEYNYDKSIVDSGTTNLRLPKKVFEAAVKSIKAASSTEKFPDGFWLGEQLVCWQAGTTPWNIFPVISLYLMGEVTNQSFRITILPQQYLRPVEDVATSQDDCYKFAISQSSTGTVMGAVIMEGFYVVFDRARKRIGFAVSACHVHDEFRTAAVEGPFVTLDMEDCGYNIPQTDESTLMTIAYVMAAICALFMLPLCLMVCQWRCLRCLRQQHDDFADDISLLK
BACE 1 IC50 μM (human BACE1),melting point [°C],pIC50 (human BACE1),SMILES
D (D = >5.0 μM-0.10 = μM),161 to 162,,"CCOC(=O)c1ccc(-c2ccc(-c3ccccc3)n2Cc2cccc(N)n2)cc1 [Example 58, Ethyl 4-{1-[(6-aminopyridin-2-yl)methyl]-5-phenyl-1H-pyrrol-2-yl}benzoate]"
,184 to 185,5.30 to 5.96,"CCNC(=O)c1ccc(-c2ccc(-c3ccc(F)cc3)n2Cc2cccc(N)n2)cc1 [Example 61, 4-[1-[(6-aminopyridin-2-yl)methyl]-5-(4-fluorophenyl)-1H-pyrrol-2-yl]-N-ethylbenzamide]"
D (D = >5.0 μM-0.10 = μM),98 to 99,,"Nc1cccc(Cn2c(-c3ccccc3)ccc2-c2ccc(C(=O)NCC3CCCO3)cc2)n1 (stereo not drawn) [Example 66, 4-{1-[(6-aminopyridin-2-yl)methyl]-5-phenyl-1H-pyrrol-2-yl}-N-(tetrahydrofuran-2-ylmethyl)benzamide]"
